A value given as a limit tells only on which side of the number the result lay.

This passage reports IC50 results from patent US20190055212A1, “HISTONE DEMETHYLASE INHIBITORS” (priority 2016, published 2019).

This assay addresses KDM5B enzyme (Homo sapiens, UniProt Q9UGL1). Kind of assay: KDM5B HTRF (TR-FRET) demethylase inhibition assay. To be noted: 1.2 nM KDM5B, 30 nM Biotin-H3K4Me3 1-21 substrate, 10 point dose-response. Type of assay: biochemical. The protocol: Ten point dose-response curves for compounds shown in Table 1 were determined using a homogeneous time resolved fluorescence (HTRF) assay (Reaction Biology Corp, Malvern, Pa.). This assay combines fluorescence resonance energy transfer (FRET) with time resolve (TR) measurements (TR-FRET). The KDM5B α-ketoglutarate-dependent demethylase activity is calculated by measuring demethylation of a biotin labeled histone tri-methylated H3K4 substrate using an europium-cryptate (Eu)-labeled antibody donor specific for dimethylated histone H3K4 and a Streptavidin-XL665 acceptor that binds to the biotin group of substrate, and detecting FRET by exciting the reaction mixture at 320 nm and reading dual emissions at 615 nm and 665 nm.
Briefly, compounds disclosed herein were solubilized in DMSO and a series of 10, three-fold serial dilutions were made for each compound in 100% DMSO. The initial starting concentration for the serial dilutions of each compound was 10 μM or 100 μM. Control samples lacking compound, KDM5B enzyme or various reaction components also were prepared and processed in parallel with compound test samples.
An aliquot of each serial dilution of test compound was added to a 384 well plate (Corning Cat #3572) containing 1.2 nM KDM5B enzyme suspended in 50 mM Hepes, pH7.5, 50 mM NaCl, 0.01% Tween 20, 0.1% BSA, and 1% DMSO (final concentrations) in a 10 microliter reaction volume using a LABCYTE ECHO liquid handler. The samples were mixed, subjected to centrifugation and the plate was pre-incubated at room temperature for 15 min, to which 30 nM Biotin-H3K4Me3 1-21 substrate (Anaspec Cat #64192), 20 μM […] and 20 μM α-ketoglutarate co-factors, and 100 μM Ascorbate were added to initiate the enzymatic reaction. The reaction mixture was incubated at room temperature for 45 minutes. A 10 μl aliquot of a detection mixture of Eu-labeled anti-histone H3K4Me2 antibody (CisBIO Cat #610AXLB) and Streptavidin-XL665 (CisBIO Cat #610 SAXLB) in 200 mM potassium fluoride and 10 mM EDTA was added and kinetic measurements were read at 5 minute intervals for a period of 30 minutes using an Envision Multiplate Reader (PerkinElmer Model 2102; excitation at 320 nm and emmission reads at 615 nm and 665 nm). The IC50 value for each compound was determined from the 665/615 ratio obtained for each 10 point dose-response curve using GraphPad Prism 4 software with a sigmodial dose response. Key: “A”≤100 nM; “B”>100 nM-≤500 nM; “C”>500 nM and N/D is not determined.

KDM5B enzyme, sequence (Q9UGL1 whole entry): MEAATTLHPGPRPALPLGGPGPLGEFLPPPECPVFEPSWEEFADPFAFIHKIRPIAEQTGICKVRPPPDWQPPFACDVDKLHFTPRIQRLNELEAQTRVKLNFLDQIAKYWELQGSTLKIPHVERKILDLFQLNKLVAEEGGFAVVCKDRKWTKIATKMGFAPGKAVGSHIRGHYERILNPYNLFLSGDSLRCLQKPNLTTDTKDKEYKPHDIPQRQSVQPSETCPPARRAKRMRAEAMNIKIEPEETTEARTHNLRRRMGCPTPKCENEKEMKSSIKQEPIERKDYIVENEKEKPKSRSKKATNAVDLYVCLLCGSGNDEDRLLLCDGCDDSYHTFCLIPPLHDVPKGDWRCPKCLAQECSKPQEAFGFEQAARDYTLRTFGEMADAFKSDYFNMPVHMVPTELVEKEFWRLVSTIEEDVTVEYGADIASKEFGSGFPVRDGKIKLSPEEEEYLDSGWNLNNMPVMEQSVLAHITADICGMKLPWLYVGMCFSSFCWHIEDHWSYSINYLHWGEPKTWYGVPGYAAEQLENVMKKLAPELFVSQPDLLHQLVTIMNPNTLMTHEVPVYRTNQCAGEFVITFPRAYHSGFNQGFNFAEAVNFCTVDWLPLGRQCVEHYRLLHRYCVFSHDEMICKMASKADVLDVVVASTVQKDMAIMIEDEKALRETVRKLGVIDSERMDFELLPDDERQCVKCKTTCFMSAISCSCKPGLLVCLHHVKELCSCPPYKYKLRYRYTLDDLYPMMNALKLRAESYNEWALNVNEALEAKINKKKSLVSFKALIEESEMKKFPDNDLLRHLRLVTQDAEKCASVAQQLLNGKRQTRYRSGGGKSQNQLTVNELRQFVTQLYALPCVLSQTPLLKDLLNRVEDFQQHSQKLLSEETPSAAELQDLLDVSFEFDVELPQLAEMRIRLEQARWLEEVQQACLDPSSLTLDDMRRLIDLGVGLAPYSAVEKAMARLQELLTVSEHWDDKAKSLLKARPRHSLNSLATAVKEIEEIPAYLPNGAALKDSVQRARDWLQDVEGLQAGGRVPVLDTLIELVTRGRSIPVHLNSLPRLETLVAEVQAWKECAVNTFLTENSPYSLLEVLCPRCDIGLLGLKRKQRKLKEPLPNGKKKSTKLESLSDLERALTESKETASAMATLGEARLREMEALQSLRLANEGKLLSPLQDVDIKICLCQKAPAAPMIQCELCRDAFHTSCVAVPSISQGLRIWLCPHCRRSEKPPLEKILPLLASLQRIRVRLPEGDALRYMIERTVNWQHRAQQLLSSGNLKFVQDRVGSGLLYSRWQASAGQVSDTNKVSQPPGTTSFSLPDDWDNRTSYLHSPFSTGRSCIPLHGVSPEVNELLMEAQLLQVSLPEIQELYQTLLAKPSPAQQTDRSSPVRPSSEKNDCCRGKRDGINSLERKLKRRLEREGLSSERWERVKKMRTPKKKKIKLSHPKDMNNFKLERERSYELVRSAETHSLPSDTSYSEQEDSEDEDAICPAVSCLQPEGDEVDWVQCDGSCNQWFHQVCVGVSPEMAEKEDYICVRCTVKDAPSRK

For the molecule `O=C(O)c1ccnc(-c2nc3ccccc3n2Cc2ccc(Cl)cc2)c1` [Example 1], the IC50 was 100 to 500 nM.

`COc1ccc(Cn2c(-c3cc(C(=O)O)ccn3)nc3ccccc32)cc1` [Example 2] returned an IC50 of at most 100 nM. As to `COc1ccc(CCn2c(-c3cc(C(=O)O)ccn3)nc3ccccc32)cc1` [Example 3], the half-maximal inhibitory concentration (IC50) fell in the range of 100 to 500 nM.

With `COc1ccc(-n2c(-c3cc(C(=O)O)ccn3)nc3ccccc32)cc1` [Example 4], the IC50 is at most 100 nM.

In turn, `COc1cc(C)ccc1CCn1ccnc1-c1cc(C(=O)O)ccn1` [Example 5] registered an IC50 above 500 nM. For `COc1cc(Cl)ccc1CCn1ccnc1-c1cc(C(=O)O)ccn1` [Example 6], the IC50 is 100 to 500 nM. In turn, `Cc1cc(Cl)ccc1CCn1ccnc1-c1cc(C(=O)O)ccn1` [Example 7] showed an IC50 of 100 to 500 nM. In turn, `O=C(O)c1ccnc(-c2nccn2CCc2ccc(Cl)cc2)c1` [Example 8] came in with an IC50 above 500 nM. As for `N#Cc1ccccc1Cn1ccnc1-c1cc(C(=O)O)ccn1` [Example 9], the IC50 fell in the range of 100 to 500 nM. `O=C(O)c1ccnc(-c2nccn2Cc2ccc(Cl)cc2)c1` [Example 10] yielded a half-maximal inhibitory concentration (IC50) of 100 to 500 nM. Under `CCN1CCN(c2ccc(Cn3ccnc3-c3cc(C(=O)O)ccn3)c3c2CCCC3)CC1` [Example 11] stands above 500 nM; under `Cn1c(-c2ccccn2)cnc1-c1cc(C(=O)O)ccn1` [Example 12], at most 100 nM; under `Cn1cc(-c2ccccn2)nc1-c1cc(C(=O)O)ccn1` [Example 13], above 500 nM. Take `O=C(O)c1ccnc(-c2ncc(CO)n2CCc2ccc(Cl)cc2)c1` [Example 14]: the IC50 fell in the range of 100 to 500 nM. Then `CNC(=O)c1cnc(-c2cc(C(=O)O)ccn2)n1CCc1ccc(Cl)cc1` [Example 15], with at most 100 nM; and `Cc1ccc(-n2ccnc2-c2cc(C(=O)O)ccn2)cc1` [Example 16], with 100 to 500 nM; and `CN(Cc1ccc(F)cc1)Cc1ccc2nc(-c3cc(C(=O)O)ccn3)n(CCc3ccc(F)cc3)c2c1` [Example 28], with 100 to 500 nM. Under `O=C(O)c1ccnc(-c2nc3ccccc3n2CC2CCOc3ccccc32)c1` (stereo not drawn) [Example 29] stands at most 100 nM; under `O=C(O)c1ccnc(-c2ncc(-c3ccccn3)n2CCc2ccc(Cl)cc2)c1` [Example 31], 100 to 500 nM; under `O=C(O)c1ccnc(-c2ncc(-c3ccccn3)n2Cc2ccc(Oc3ccccc3)cc2)c1` [Example 34], 100 to 500 nM. For `COc1ccc(N(C)c2ccc(Cn3ccnc3-c3cc(C(=O)O)ccn3)cc2)cc1` [Example 36], the IC50 is above 500 nM. Then `CCc1ccc(N(C)c2ccc3c(c2)OCCC3Cn2ccnc2-c2cc(C(=O)O)ccn2)cc1` (stereo not drawn) [Example 42], with 100 to 500 nM; and `CN(CCc1cnc(-c2cc(C(=O)O)ccn2)n1CCc1ccc(F)cc1)Cc1ccc(Cl)cc1` [Example 47], with at most 100 nM; and `O=C(O)c1ccnc(-c2ncc(CCN3CCC(c4cc(Cl)cc(Cl)c4)CC3)n2CCc2ccc(F)cc2)c1` [Example 51], with at most 100 nM. Molecule `COc1cc(CN2CCC(NCCc3ccccc3)CC2)ccc1Cn1ccnc1-c1cc(C(=O)O)ccn1` [Example 54] returned an IC50 of 100 to 500 nM. For `CN(Cc1ccccn1)Cc1cnc(-c2cc(C(=O)O)ccn2)n1CCc1ccc(F)cc1` [Example 62], the IC50 was in the range of 100 to 500 nM.

On to `CN(Cc1ccc(N2CCOCC2)cc1)Cc1cnc(-c2cc(C(=O)O)ccn2)n1CCc1ccc(F)cc1` [Example 66], for which the IC50 lay within 100 to 500 nM. `CN(Cc1cnc(-c2cc(C(=O)O)ccn2)n1CCc1ccc(F)cc1)C1CCN(Cc2ccccc2)CC1` [Example 68] yielded an IC50 of at most 100 nM. Molecule `O=C(O)c1ccnc(-c2ncc(CN(CCO)Cc3ccccc3)n2CCc2ccc(F)cc2)c1` [Example 70] gave an IC50 of 100 to 500 nM. In the case of `CN1CCN(Cc2cnc(-c3cc(C(=O)O)ccn3)n2CCc2ccc(F)cc2)C(c2ccccc2)C1` (stereo not drawn) [Example 72], the IC50 is at most 100 nM. For `O=C(O)c1ccnc(-c2ncc(CN3CCC(OC4CCCCC4)CC3)n2CCc2ccc(F)cc2)c1` [Example 74], the IC50 was at most 100 nM.

Regarding `O=C(O)c1ccnc(-c2ncc(CN3CCN(CCCOc4ccccc4)CC3)n2CCc2ccc(F)cc2)c1` [Example 76], the IC50 was at most 100 nM. As for `O=C(O)c1ccnc(-c2ncc(CN3CCN(Cc4ccc(C(F)(F)F)cc4)CC3)n2CCc2ccc(F)cc2)c1` [Example 78], the IC50 is at most 100 nM. As to `O=C(O)c1ccnc(-c2ncc(CN3CCCN(c4ccccc4)CC3)n2CCc2ccc(F)cc2)c1` [Example 82], the IC50 is at most 100 nM.

`O=C(O)c1ccnc(-c2ncc(CN3CCc4c([nH]c5ccccc45)C3)n2CCc2ccc(F)cc2)c1` [Example 86] displayed an IC50 of at most 100 nM.

`CCc1ccc(N(C)c2ccc3c(c2)OCCC3Cn2c(-c3cc(C(=O)O)ccn3)nc3ccccc32)cc1` (stereo not drawn) [Example 88]: the half-inhibitory concentration (IC50) is above 500 nM. Molecule `COc1ccc(N(C)c2ccc3c(c2)OCCC3Cn2c(-c3cc(C(=O)O)ccn3)nc3ccccc32)cc1` (stereo not drawn) [Example 90] came in with an IC50 above 500 nM. Then `CN1CCN(Cc2cnc(-c3cc(C(=O)O)ccn3)n2C)C(c2ccccc2)C1` (stereo not drawn) [Example 101], with at most 100 nM; and `Cn1c(CN2CCN(Cc3ccc(C(F)(F)F)cc3)CC2)cnc1-c1cc(C(=O)O)ccn1` [Example 107], with at most 100 nM.
